Results: patent publication US20240398738A1, “MANIPULATION OF THE RETINOIC ACID SIGNALING PATHWAY” (THE REGENTS OF THE UNIVERSITY OF CALIFORNIA, priority 2017, published 2024)

Assays:
[1] = tested on: RGCs in rd1 retina; assay: MEA recording of photoswitch (QAQ, BENAQ) photosensitization in rd1 retina; format: in vivo, mouse; details: rd1 retina without BMS-493, mean±SEM
Method: (§1) Intravitreal Injections. Before injection, mice were anesthetized with isoflurane (2%) and their pupils were dilated with tropicamide (1%) and phenylephrine (2.5%). Proparacaine (0.5%) was used as a topical analgesic. Genteal was applied under a glass coverslip to keep the cornea lubricated. An incision was made through the sclera below the ora serrata with a 30G needle and ˜1 μl of solution was injected into the vitreous with a blunt-ended 33G Hamilton syringe. After injection, the antibiotic tobramycin (0.3%) was applied to the eye. Final drug concentrations after intravitreal injection were: all-trans retinoic acid (ATRA, 100 nM), liarozole (100 μM), diethylaminobenzaldehyde (DEAB, 20 μM), citral (50 μM), BMS-493 (500 nM), and retinaldehyde (1 μM). The above values correspond to the final concentration in the eye after injecting 1 μl of drug accounting for a 5-fold dilution. An injection of PBS including 1% DMSO was used as vehicle control.
(§2) Multi Electrode Array Recordings. For extracellular recordings, a flat-mounted retina was placed ganglion cell layer down onto a 60-electrode Multi-Electrode Array (MEA 1060-2-BC, Multi-Channel Systems). After mounting the retina, photoswitches were applied for 30 min, followed by a 15 min wash. BENAQ was applied at a concentration of 100 μM and QAQ at 300 μM. A solution containing a mixture of neurotransmitter receptor blockers isolated RGCs from synaptic inputs: (in μM) 10 AP4, 40 DNQX, 30 AP5, 10 SR-95531, 50 TPMPA, 10 strychnine, and 50 tubocurarine. Extracellular spikes were high-pass filtered at 200 Hz and digitized at 20 kHz and were counted when exceeding 4 SD from the mean background voltage signal. Typically, each electrode recorded spikes from one to three individual RGCs. Principal component analysis of the spike waveforms was used for sorting spikes generated by individual cells (Offline Sorter, Plexon). Stimulation light was generated from a mercury arc lamp. Unfiltered broad spectrum light was used for BENAQ-treated retinas. Narrow band optical filters (Chroma) were used to deliver alternating intervals of 380 nm and 500 nm for stimulation of QAQ-treated as described previously (5,12). The Photoswitch Index (5) (PI) was established for individual retinas in light/darkness for treatment with BENAQ or in 380 nm/500 nm light for treatment with QAQ (11,12).
(§3) Injections. Intravitreal injections: Adult mice and rats were intravitreally injected with drugs or viruses. Before injection, animals were anesthetized with isoflurane (2%) and their pupils were dilated with tropicamide (1%) and phenylephrine (2.5%). Proparacaine (0.5%) was used as a topical analgesic. Genteal was applied under a glass coverslip to keep the cornea lubricated. An incision was made through the sclera below the ora serrata with a 30G needle. Solutions were injected into the vitreous with a blunt-ended 33G Hamilton syringe. After injection, the antibiotic tobramycin (0.3%) was applied to the eye. Final drug concentrations (after 5-fold dilution in the vitreous) were: 100 nM all-trans retinoic acid (ATRA), 100 μM liarozole (24), 20 μM diethylaminobenzaldehyde (DEAB) (28,93), 50 μM citral, 500 nM BMS 493 (85), 1 μM retinaldehyde, and vehicle comprising of 1× phosphate buffered saline (PBS) containing 1% dimethyl sulfoxide (DMSO). Intravitreal injections were performed using AAV2 serotype only. WT and rd1 mice were injected with the RAR-reporter virus or the RARDN virus, at age 1-1.5 month-old. […]

[2] = tested on: RGCs in rd1 retina; assay: YO-PRO-1 loading assay (dye permeability of RGCs) in rd1 retina after intravitreal injection; format: in vivo, mouse; details: for Yo-Pro-1 labeling of rd1-RGCs, result in words: rd1, intravitreal injection, compared to vehicle-injected; for percentage of YO-PRO-1 positive cells (fraction of RGC nuclei labeled): rd1 mice, intravitreal injection, measured 3-7 days after, BMS-493 500 nM, DEAB 20 uM, citral 50 uM, mean±SEM
Method: as §1
(§4) Yo-PRO-1 Loading Assay. After dissection, retinas were cut into thirds and mounted on a windowed nitrocellulose filter paper. Retinas were treated with 200 nM Yo-PRO-1 (Life Technologies) in oxygenated ACSF for 15 minutes, followed by treatment and then treated with nuclear ID (Enzo Life Sciences) at a 1:500 dilution for 3 minutes. ACSF was perfused continuously at 3 ml/min for a period of 5 minutes to wash away excess dye. In experiments employing TNP-ATP (200 μm), the retinas was pretreated with the compound for ten minutes before beginning YO-PRO-1 treatment.
(§5) Image analysis. All image analysis was performed using ImageJ or Fiji software (55,56). Yo-PRO-1 loading assay, ROIs were manually selected using the nuclear-ID channel based upon morphological characteristics. This was performed after computationally flattening the retina by performing a maximum Z projection onto a single plane. Following this, a background subtraction was performed with a rolling radius of 50 pixels. Cells identified as vascular endothelial cells or pericytes were not included in the analysis. This was confirmed using transillumination. A threshold for YO-PRO-1 loading was established by measuring the level of autofluorescence of untreated retinas in each channel and finding a baseline value with +2SD being the threshold for a YO-PRO-1 positive cell. Nuclear-ID was used to count the total number of cells within a field of view. The percentage of cells above the threshold was then calculated for comparison. For analysis of RARE double reporter virus assay, ROIs were manually selected on the RFP channel first and then superimposed to the GFP channel. Single cell values for both RFP and GFP were filtered by using a RFP minimum threshold established in naive unlabeled retinas.
as §3, with “month-old. WT and s334ter rats were injected with the RAR-reporter virus at age 3-4 month-old. Final volume of injections was 1-1.5 μL for mice and 5 μL for rats.” for “month-old.”

[3] = tested on: RGCs in WT retina; assay: YO-PRO-1 loading assay (dye permeability of RGCs) in WT retina after intravitreal injection; format: in vivo, mouse; details: for percentage of YO-PRO-1 positive cells: intravitreal injection 3-7 days before, ATRA 100 nM, liarozole 100 μM, retinaldehyde 1 μM, DEAB 20 μM; for Yo-Pro-1 labeling of WT-RGCs, result in words: WT retina, substance injected intravitreally alone
Method: as §1, §4, §5
as §3, with “month-old. WT and s334ter rats were injected with the RAR-reporter virus at age 3-4 month-old. Final volume of injections was 1-1.5 μL for mice and 5 μL for rats.” for “month-old.”

[4] = tested on: gap junctions; details: micromolar concentrations are required; cited from earlier work
[5] = tested on: RGCs in WT retina; assay: MEA recording of photoswitch (QAQ, BENAQ) photosensitization in WT retina; format: in vivo, mouse
Method: as §1, §2
Injections. Intravitreal injections: Adult mice and rats were intravitreally injected with drugs or viruses. Before injection, animals were anesthetized with isoflurane (2%) and their pupils were dilated with tropicamide (1%) and phenylephrine (2.5%). Proparacaine (0.5%) was used as a topical analgesic. Genteal was applied under a glass coverslip to keep the cornea lubricated. An incision was made through the sclera below the ora serrata with a 30G needle. Solutions were injected into the vitreous with a blunt-ended 33G Hamilton syringe. After injection, the antibiotic tobramycin (0.3%) was applied to the eye. Final drug concentrations (after 5-fold dilution in the vitreous) were: 100 nM all-trans retinoic acid (ATRA), 100 μM liarozole (24), 20 μM diethylaminobenzaldehyde (DEAB) (28,93), 50 μM citral, 500 nM BMS 493 (85), 1 μM retinaldehyde, and vehicle comprising of 1× phosphate buffered saline (PBS) containing 1% dimethyl sulfoxide (DMSO). Intravitreal injections were performed using AAV2 serotype only. WT and rd1 mice were injected with the RAR-reporter virus or the RARDN virus, at age 1-1.5 month-old. WT and s334ter rats were injected with the RAR-reporter virus at age 3-4 month-old. Final volume of injections was 1-1.5 μL for mice and 5 μL for rats.
Multi Electrode Array Recordings. Flat-mounted retina was placed ganglion cell layer down onto a 60-electrode Multi-Electrode Array (MEA 1060-2-BC, Multi-Channel Systems). After mounting the retina was left to dark adapt for 20 minutes under constant perfusion with oxygenated saline at 34° C. 300 μM QAQ at was applied for 30 min, followed by a 5 min wash. […]

With `CCN(Cc1ccccc1)c1ccc(/N=N/c2ccc(NC(=O)C[N+](CC)(CC)CC)cc2)cc1` [BENAQ, benzylethylamino-azobenzene-quaternary ammonium] the “Photoswitch Index (PI) of BENAQ” value ([1]; white light/darkness) was 0.56±0.03.

In the case of `CCN(CC)c1ccc(C=O)cc1` [DEAB, diethylaminobenzaldehyde], the “Yo-Pro-1 labeling of rd1-RGCs, result in words” value [2] is reported as “significantly reduced the percentage of rd1-RGCs labeled with Yo-Pro-1”, the “percentage of YO-PRO-1 positive cells (fraction of RGC nuclei labeled)” value [2] is reported as 19.77±2.32% and the “percentage of YO-PRO-1 positive cells, retinaldehyde co-injected with DEAB” value ([3]; WT mice, co-injection with retinaldehyde, 3-7 days before imaging, mean±SEM) is reported as 7.65±1.34%. The “percentage of YO-PRO-1 positive cells” value ([3]; WT mice, mean±SEM) was 7.47±1.21% and the “Yo-Pro-1 labeling of WT-RGCs, result in words” value (“Yo-Pro-1 labeling of WT-RGCs” for short) [3] was “caused no change in Yo-Pro-1 labeling”.

In the case of `Cc1ccc(Cl)c(Nc2ccccc2C(=O)O)c1Cl` [Meclofenamic acid], the “effect on RGC light responses” value [4] is given as “augments RGC light responses by reducing hyperactivity”.

For `CC[N+](CC)(CC)CC(=O)Nc1ccc(N=Nc2ccc(NC(=O)C[N+](CC)(CC)CC)cc2)cc1` [QAQ, quaternary ammonium-azobenzene-quaternary ammonium], the “Photoswitch Index (PI) of QAQ” value ([1]; QAQ 300 μM, 380/500 nm) was 0.63±0.12.

For `CC1=C(/C=C/C(C)=C/C=C/C(C)=C/C=O)C(C)(C)CCC1` [Retinaldehyde, retinaldehyde], the “percentage of YO-PRO-1 positive cells” value ([3]; WT mice, mean±SEM) was 14.6±2.29% and the “Yo-Pro-1 labeling of WT-RGCs” value [3] was “significantly increasing Yo-Pro-1 labeling above baseline”.

For `CC(C)=CCCC(C)=CC=O` [citral], the “Yo-Pro-1 labeling of rd1-RGCs, result in words” value [2] was “significantly reduced the percentage of rd1-RGCs labeled with Yo-Pro-1” and the “percentage of YO-PRO-1 positive cells (fraction of RGC nuclei labeled)” value [2] was 9.87±2.39%.

For `Clc1cccc(C(c2ccc3[nH]cnc3c2)n2ccnc2)c1` (stereo not shown) [liarozole], the “QAQ photosensitization of WT retina, in words” value ([5]; WT retina, 3-7 days after intravitreal injection) was “Neither ATRA nor liarozole alone enabled significant QAQ photosensitization”, the “Photoswitch Index (PI) with QAQ” value ([5]; WT retina, 3-7 days after intravitreal injection, QAQ 300 μM, mean±SEM) was 0.27±0.13 and the “percentage of YO-PRO-1 positive cells” value ([3]; WT mice, mean±SEM) was 8.66±1.36%. For the same compound, the “Yo-Pro-1 labeling of WT-RGCs” value [3] was “had no effect by itself”.

With TNP-ATP the “Photoswitch Index (PI) with QAQ, ATRA plus liarozole with TNP-ATP” value ([5]; WT retina injected with ATRA plus liarozole, TNP-ATP bath-loaded, mean±SEM) was 0.19±0.14, the “effect on QAQ photosensitization induced by ATRA plus liarozole, in words” value ([5]; WT retina, TNP-ATP bath-loaded) was “blocked by TNP-ATP” and the “percentage of YO-PRO-1 positive cells, ATRA-induced labeling with blocker” value ([3]; WT mice injected with ATRA, TNP-ATP bath-applied ex vivo or BMS-493 co-injected, mean±SEM) was 0.39±0.31%.
